A value given as a limit tells only on which side of the number the result lay.

Experiment [1] deals with CD8-MerTK (Ba/F3-CDM cells) (Homo sapiens, UniProt Q12866). Nature of the experiment: In Cell MER Kinase Assay Using BaF3 Cellular System. It is filed as cell-based. Conditions: Ba/F3-CDM proliferation without IL-3, 48 hours, Celltiter-Glo. The text has this:
CD8-MerTK is a chimeric fusion protein consisting of the extracellular and transmembrane domains of the human CD8α (amino acids 1 to 209) at its N-terminus and the kinase domain and intracellular parts of MerTK (amino acids 521-994) at its C-terminus. To establish an in cell kinase assay for MerTK kinase, the IL-3 dependent Ba/F3 cells of murine lymphoid origin was transfected with CD8-MerTK. The resulting Ba/F3-CDM line was then validated that Ba/F3-CDM cell proliferation is completely dependent on the activity of MerTK kinase activity when growing in the absence of IL-3. For a routine cellular assay, Ba/F3-CDM cells were seeded at 2,000 cells per well in 384-well cell culture plate containing DMEM/10% FBS culture media and incubated for 24 hours before addition of compounds pre-diluted in culture media. Following compound treatment, cells were further incubated for 48 hours and the proliferation was measured. To discriminate a Ba/F3 growth inhibition by a specific inhibition of MerTK kinase following compound treatment vs growth inhibition due to a non-specific unintended cytotoxicity of compounds, we routinely carried out control sets of Ba/F3 cells in parallel that grown in IL3-supplemented growth media. In the presence of IL-3, the proliferation of Ba/F3 is no longer dependent on the MerTK activity. Cell growth and proliferation was measured with Celltiter-Glo™ system (Promega, USA) according to the manufacturer's instruction. The half-maximal growth inhibitory concentration (GI50) value was calculated with Prism6.0 software (GraphPad, USA).

In the next experiment the target is human MER (528-end) (Homo sapiens (Human), UniProt Q12866). Nature of the experiment: HTRF Kinase Activity Biochemical Assay (KinEASE-TK). Conditions: 10 uM ATP. In a few lines:
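Activity read-out is the HTRF ratio (665 nm over 620 nm emission, ×10,000; excitation 340 nm) after 1 h detection with 0.375 nM Eu3+-cryptate anti-TK antibody plus 0.062 uM SA-XL665. Preceding kinase step: human MER (528-end), biotinylated TK substrate, 1 h, room temperature.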

The target in experiment [2] is human c-MER catalytic domain (Homo sapiens (Human), UniProt Q12866). Description: TR-FRET Kinase Activity Biochemical Assay (LanthaScreen). Conditions: 10 uM ATP, 1 hour, kinase not given. A digest of the protocol: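 Activity was quantified as the ratio of 495 nm to 520 nm emission (excitation 340 nm) in a LanthaScreen TR-FRET format. The enzyme was the human c-MER catalytic domain, and the substrate was fluorescein-poly-GT. Detection used 2 nM Tb anti-phosphotyrosine antibody for 30 min after termination with 10 mM EDTA.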
Sequence of human c-MER catalytic domain (Q12866 587-858): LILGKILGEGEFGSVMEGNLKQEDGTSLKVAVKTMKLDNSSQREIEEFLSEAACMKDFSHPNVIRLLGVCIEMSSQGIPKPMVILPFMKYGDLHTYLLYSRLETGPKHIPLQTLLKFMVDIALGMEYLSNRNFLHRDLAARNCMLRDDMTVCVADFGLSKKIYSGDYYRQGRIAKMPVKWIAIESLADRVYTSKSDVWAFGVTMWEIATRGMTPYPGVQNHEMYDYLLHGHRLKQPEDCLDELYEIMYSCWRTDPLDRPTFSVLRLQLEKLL

Experiment [3] has as its target BCR fusion to kinase domain of MerTK (Ba/F3-MerTK) (Homo sapiens, UniProt Q12866). Description: In Cell TAM Kinase Assay Using BaF3 Cellular System. It is filed as cell-based, murine. Conditions: Ba/F3 BCR-kinase fusion proliferation, 72 hours, Cell Titer Glo; kinase not given; read-out: IC50. In a few lines: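 Ba/F3 murine pro-B cells expressing BCR–MerTK kinase-domain fusion (IL-3 independent), seeded at 1,000 cells/well onto compound and grown 72 h. Viability read by CellTiter-Glo 2.0 luminescence after 30 min at room temperature.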

Sequence of human MER (528-end) (Q12866 528-999 limits assumed): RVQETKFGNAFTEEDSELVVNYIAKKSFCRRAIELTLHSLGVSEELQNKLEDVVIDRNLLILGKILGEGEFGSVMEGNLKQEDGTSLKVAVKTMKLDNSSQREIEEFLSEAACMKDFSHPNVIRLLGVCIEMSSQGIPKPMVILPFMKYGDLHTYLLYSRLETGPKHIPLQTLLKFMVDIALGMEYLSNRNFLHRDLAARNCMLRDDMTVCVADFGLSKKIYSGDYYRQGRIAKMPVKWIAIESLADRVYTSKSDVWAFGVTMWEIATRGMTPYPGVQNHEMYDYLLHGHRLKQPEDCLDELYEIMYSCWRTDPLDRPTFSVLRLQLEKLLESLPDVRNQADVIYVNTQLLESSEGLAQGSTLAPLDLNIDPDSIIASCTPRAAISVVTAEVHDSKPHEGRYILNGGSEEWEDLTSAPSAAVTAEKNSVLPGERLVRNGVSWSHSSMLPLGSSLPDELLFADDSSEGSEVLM
Sequence of BCR fusion to kinase domain of MerTK (Ba/F3-MerTK) (Q12866 21-999 limits assumed, change not shown): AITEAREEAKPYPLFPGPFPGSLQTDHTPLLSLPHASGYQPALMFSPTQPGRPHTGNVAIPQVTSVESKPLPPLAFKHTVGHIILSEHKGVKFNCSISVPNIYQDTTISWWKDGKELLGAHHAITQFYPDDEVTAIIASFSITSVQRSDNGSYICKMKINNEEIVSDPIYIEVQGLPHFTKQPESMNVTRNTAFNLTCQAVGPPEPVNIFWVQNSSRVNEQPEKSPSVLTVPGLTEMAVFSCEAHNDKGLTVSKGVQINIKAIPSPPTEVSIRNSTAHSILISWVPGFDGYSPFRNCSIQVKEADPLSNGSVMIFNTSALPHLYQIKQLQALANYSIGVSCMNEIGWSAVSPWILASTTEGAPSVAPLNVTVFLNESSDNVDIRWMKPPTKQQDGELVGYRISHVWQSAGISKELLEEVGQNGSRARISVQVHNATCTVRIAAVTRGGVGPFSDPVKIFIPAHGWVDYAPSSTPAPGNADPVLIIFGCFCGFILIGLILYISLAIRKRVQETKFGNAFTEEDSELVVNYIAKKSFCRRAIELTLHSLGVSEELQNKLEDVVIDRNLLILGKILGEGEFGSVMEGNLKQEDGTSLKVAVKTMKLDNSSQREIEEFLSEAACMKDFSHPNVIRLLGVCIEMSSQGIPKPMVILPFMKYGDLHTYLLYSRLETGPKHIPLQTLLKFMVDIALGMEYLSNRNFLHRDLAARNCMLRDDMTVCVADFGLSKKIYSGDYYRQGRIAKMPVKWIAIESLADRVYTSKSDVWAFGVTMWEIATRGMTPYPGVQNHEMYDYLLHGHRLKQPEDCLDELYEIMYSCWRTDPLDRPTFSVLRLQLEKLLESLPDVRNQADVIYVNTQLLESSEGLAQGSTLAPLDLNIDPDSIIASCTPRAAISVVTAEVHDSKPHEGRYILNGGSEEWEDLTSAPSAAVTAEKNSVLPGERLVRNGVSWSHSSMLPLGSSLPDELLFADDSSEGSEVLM
Sequence of CD8-MerTK (Ba/F3-CDM cells) (Q12866 21-999 limits assumed, stated change not applied): as the sequence (Q12866 21-999 limits assumed, change not shown) above

Consider `Cc1cc(C(=O)N2CC[C@@H](NC(=O)c3cc(-c4cnn(C)c4)cnc3N)C2)ccc1-c1ccc(CN2CCN(C)CC2)cc1` [Example 392, (R)-2-amino-5-(1-methyl-1H-pyrazol-4-yl)-N-(1-(2-methyl-4^1-((4-methylpiperazin-1-yl)methyl)-[1,1′-biphenyl]-4-carbonyl)pyrrolidin-3-yl)nicotinamide], for which the IC50 is over 1000 nM in experiment [1] and 100 to 1000 nM at human MER (528-end).

As to `Nc1cncc(-c2cnc(N)c(C(=O)N[C@@H]3CCN(C(=O)c4ccc(-c5ccc(F)cc5Cl)cc4)C3)c2)c1` [Example 583, (R)-5′,6-diamino-N-(1-(2′-chloro-4′-fluoro-[1,1′-biphenyl]-4-carbonyl)pyrrolidin-3-yl)-[3,3′-bipyridine]-1-5-carboxamide], the IC50 was over 1000 nM in experiment [1] and under 10 nM in experiment [2].

For `Cn1cc(-c2cnc(N)c(C(=O)N[C@@H]3CCN(C(=O)Oc4ccc5cc(OCC6CCNCC6)ccc5c4)C3)c2)cn1` [Example 303], the half-maximal inhibitory concentration (IC50) was in the range of 500 to 1000 nM in experiment [1] and 10 to 100 nM in experiment [2].

As to “(R)-2-amino-N-(1-(2-chloro-[1,1′-biphenyl]-4-carbonyl)pyrrolidin-3-yl)-5-(1-methyl-1H-pyrazol-4-yl)nicotinamide [Example 394]”, the values for the half-maximal inhibitory concentration (IC50) (in experiment [1]; against human MER (528-end)) were over 1000 nM and 100 to 1000 nM, respectively.

With `Nc1ncc(-c2ccc(N3CCOCC3)nc2)cc1C(=O)N[C@@H]1CCN(C(=O)c2ccc(-c3ccccc3)cc2)C1` [Example 559], the 50% inhibitory concentration (IC50) in experiment [1] was in the range of 100 to 500 nM; at human MER (528-end), 10 to 100 nM.

Regarding “(R)-2-amino-N-(1-((4′-(dimethylamino)-[1,1′-biphenyl]-3-yl)carbamoyl)pyrrolidin-3-yl)-5-(1-methyl-1H-pyrazol-4-yl)nicotinamide [Example 263]”, the figures for the half-maximal inhibitory concentration (IC50) in experiment [1] and in experiment [2] were over 1000 nM and 10 to 100 nM, respectively.

In the case of `Cn1cc(-c2cnc(N)c(C(=O)N[C@@H]3CCN(C(=O)c4ccc(-c5ccc(OCC6CCNCC6)cc5)cc4)C3)c2)cn1` [Example 550], the results for the IC50 in experiment [1] and in experiment [2] were over 1000 nM and 10 to 100 nM, respectively.

Turning to `Cc1cc(-c2ccc(CN3CCN(C)CC3)cc2)ccc1C(=O)N1CC[C@@H](NC(=O)c2cc(-c3cnn(C)c3)cnc2N)C1` [Example 391, (R)-2-amino-5-(1-methyl-1H-pyrazol-4-yl)-N-(1-(3-methyl-4^1-((4-methylpiperazin-1-yl)methyl)-[1,1′-biphenyl]-4-carbonyl)pyrrolidin-3-yl)nicotinamide], the IC50 (in experiment [1]; against human MER (528-end)) was over 1000 nM throughout.

`Nc1ncc(-c2ccccc2C(=O)O)cc1C(=O)N[C@@H]1CCN(C(=O)c2ccc(-c3ccc(F)cc3Cl)cc2)C1` [Example 777, (R)-2-(6-amino-5-((1-(2′-chloro-4′-fluoro-[1,1′-biphenyl]-4-carbonyl)pyrrolidin-3-yl)carbarnoyl)pyridin-3-yl)benzoic acid]: the IC50 (in experiment [1]; on human MER (528-end)) was over 1000 nM throughout.

Regarding `Cn1cc(-c2cnc(N)c(C(=O)N[C@@H]3CCN(C(=O)Oc4cccc(OCC5CCC(N)CC5)c4)C3)c2)cn1` (stereo partly drawn) [Example 305, 3-(((1R,4R)-4-aminocyclohexyl)methoxy)phenyl (R)-3-(2-amino-5-(1-methyl-1H-pyrazol-4-yl)nicotinamido)pyrrolidine-1-carboxylate], the IC50 in experiment [1] is over 1000 nM; in experiment [2] it was 100 to 1000 nM.

Take “(R)-2-amino-N-(1-(2′-chloro-[1,1′-biphenyl]-4-carbonyl)pyrrolidin-3-yl)-5-(4-(4-methylpiperazin-1-yl)phenyl)nicotinamide [Example 570]”: the IC50 in experiment [1] was 100 to 500 nM; in experiment [2], under 10 nM.

Turning to “(R)-2-amino-N-(1 chlorophenyl)carbamoyl)pyrrolidin-3-yl)-5-(1-(1-methylpiperidin-4-yl)-1H-pyrazol-4-yl)nicotinamide [Example 11]”, the values for the IC50 in experiment [1] and in experiment [2] were over 1000 nM and 10 to 100 nM, respectively.

For `Cn1cc(-c2cnc(N)c(C(=O)N[C@@H]3CCN(C(=O)c4cc5c(C(F)(F)F)ccc(Cl)c5[nH]4)C3)c2)cn1` [Example 704, (R)-2-amino-N-(1-(7-chloro-4-(trifluoromethyl)-1H-indole-2-carbonyl)pyrrolidin-3-yl)-5-(1-methyl-1H-pyrazol-4-yl)nicotinamide], the half-inhibitory concentration (IC50) (in experiment [3]; against human MER (528-end)) was over 1000 nM each time.

Turning to `Cn1cc(-c2cnc(N)c(C(=O)N[C@@H]3CCN(C(=O)c4ccc(-c5ccc(Oc6ccc(N)cc6)cc5)cc4)C3)c2)cn1` [Example 505, (R)-2-amino-N-(1-(4′-(4-aminophenoxy)-[1,1′-biphenyl]-4-carbonyl)pyrrolidin-3-yl)-5-(1-methyl-1H-pyrazol-4-yl)nicotinamide], the IC50 was over 1000 nM in experiment [3] and 100 to 1000 nM at human MER (528-end).

Consider `Cn1cc(-c2cnc(N)c(C(=O)N[C@@H]3CCN(C(=O)c4ccc(-c5ccc(F)cc5F)cc4)C3)c2)cn1` [Example 365, (R)-2-amino-N-(1-(2′,4′-difluoro-[1,1′-biphenyl]-4-carbonyl)pyrrolidin-3-yl)-5-(1-methyl-1H-pyrazol-4-yl)nicotinamide], for which the IC50 in experiment [3] was over 1000 nM; at human MER (528-end) it was 10 to 100 nM.

Take `CCc1cccc(-c2ccc(C(=O)N3CC[C@@H](NC(=O)c4cc(-c5cnn(C)c5)cnc4N)C3)cc2)c1` [Example 657, (R)-2-amino-N-(1-(3′-ethyl-[1,1′-biphenyl]-4-carbonyl)pyrrolidin-3-yl)-5-(1-methyl-1H-pyrazol-4-yl)nicotinamide]: the IC50 lay within 100 to 500 nM in experiment [3] and 10 to 100 nM at human MER (528-end).

For the molecule `CN(c1ccc2cc(C(=O)N3CC[C@@H](NC(=O)c4cc(-c5cnn(C)c5)cnc4N)C3)ccc2c1)C1CCNCC1` [Example 818, (R)-2-amino-N-(1-(6-(methyl(piperidin-4-yl)amino)-2-naphthoyl)pyrrolidin-3-yl)-5-(1-methyl-1H-pyrazol-4-yl)nicotinamide], the values for the concentration for half-maximal inhibition (IC50) (in experiment [3]; at human MER (528-end)) were over 1000 nM and 10 to 100 nM, respectively.

As to `CN1CCN(Cc2ccc(-c3ccc(C(=O)N4CC[C@@H](Nc5n[nH]c6ncc(-c7cnn(C)c7)cc56)C4)cc3)cc2)CC1` [Example 794, (R)-(3-((5-(1-methyl-1H-pyrazol-4-yl)-1H-pyrazolo[3,4-b]pyridin-3-yl)amino)pyrrolidin-1-yl)(4′-((4-methylpiperazin-1-yl)methyl)-[1,1′-biphenyl]-4-yl)methanone], the 50% inhibitory concentration (IC50) in experiment [3] was over 1000 nM; on human MER (528-end) it was 10 to 100 nM.

On to `NC(=O)c1ccccc1-c1cnc(N)c(C(=O)N[C@@H]2CCN(C(=O)c3ccc(-c4ccc(F)cc4Cl)cc3)C2)c1` [Example 776, (R)-2-amino-5-(2-carbamoylphenyl)-N-(1-(2′-chloro-4′-fluoro-[1,1′-biphenyl]-4-carbonyl)pyrrolidin-3-yl)nicotinamide], for which the concentration for half-maximal inhibition (IC50) (in experiment [3]; at human MER (528-end)) was over 1000 nM in each case.

For the molecule `Cn1cc(-c2cnc(N)c(C(=O)N[C@@H]3CCN(C(=O)c4cc5ccccc5n4C)C3)c2)cn1` [Example 695, (R)-2-amino-N-(1-(1-methyl-1H-indole-2-carbonyl)pyrrolidin-3-yl)-5-(1-methyl-1H-pyrazol-4-yl)nicotinamide], the half-inhibitory concentration (IC50) (in experiment [3]; at human MER (528-end)) was over 1000 nM throughout.

As to `Cn1cc(-c2cnc(N)c(C(=O)N[C@@H]3CCN(C(=O)c4ccc(-c5ccc6c(cnn6C)c5)cc4)C3)c2)cn1` [Example 757, (R)-2-amino-N-(1-(4-(1-methyl-1H-indazol-5-yl)benzoyl)pyrrolidin-3-yl)-5-(1-methyl-1H-pyrazol-4-yl)nicotinamide], the values for the IC50 (in experiment [3]; against human MER (528-end)) were over 1000 nM and 100 to 1000 nM, respectively.

As to `Cn1cc(-c2cnc(N)c(C(=O)NC[C@@H]3CCCN3C(=O)c3cccc(-c4ccccc4)c3)c2)cn1` [Example 735, (S)—N-((1-([1,1′-biphenyl]-3-carbonyl)pyrrolidin-2-yl)methyl)-2-amino-5-(1-methyl-1H-pyrazol-4-yl)nicotinamide], the IC50 (in experiment [3]; on human MER (528-end)) was over 1000 nM throughout.

Values taken from patent US12378224B2 (Dong-A Socio Holdings Co., Ltd., priority 2016, dated 2025).
